The subject of one data set is human erythrocytes. Put plainly: In vitro hemolytic activity. To be noted: human erythrocytes in PBS, 1 h, 37 °C, OD550; from dose response curves. Format: cell-based. How it is done: Potential erythrocyte hemolysis was tested by incubating serial dilutions of the AMPs in PBS with freshly collected erythrocytes at a ratio of 1:1 in 96-well polypropylene V-shape plates for 1 h at 37 °C. Control wells were treated with 0.1% Triton-X-100 to ensure complete lysis or PBS-only to represent no lysis. The erythrocytes were collected by centrifugation and the OD550 of the supernatant was measured using a plate reader. The percentage hemolysis was calculated as [drawing 1] 1 where Apeptide is the absorbance value of erythrocytes exposed to a known peptide concentration, Agrowth control is the absorbance of erythrocytes exposed to 0.1% Triton-X-100 and Ablank is the absorbance of erythrocytes exposed to the PBS. The concentrations at which a peptide caused 10% (HC10) and 50% (HC50) hemolysis was determined from the dose response curves.

The subject of another data set is HaCat cell line. The data set can be described thus: In vitro HaCat cytotoxicity (MTT). The data set is classed as cell-based, human. The conditions noted are these: 21 h exposure, OD570, relative to untreated control. How it is done: The HaCat cell line (Cellonex, South Africa) was cultured in Dulbecco’s Modified Eagle Medium (DMEM) supplemented with 10% heat-inactivated fetal calf serum (FCS) and 1% antibiotic-antimycotic (Abs) and maintained at 5–10% CO2, 37 °C, 95% humidity. For cytotoxicity screening, 5.56 × 10^4 cells/mL were plated in a 96-well plate. After 24 h incubation, the cells are initially exposed to each peptide at a concentration of 256 μg/mL or 0.1% Triton-X-100 as the control for 21 h. If cytotoxicity was observed, at a level of significance of p < 0.0001 compared with the untreated control after 21 h, a dose-response assay was undertaken. Cell viability was determined by adding 10% 3-(4,5-dimethyl-2-thiazolyl)-2,5-diphenyl-2H-tetrazolium bromide (MTT) (1 mg/mL), to each well and after a further 3 h incubation the media was discarded, and the formazan crystals dissolved by adding 25% DMSO in ethanol. The absorbance was measured at OD570 by using the FLUOstar Omega multidetection microplate reader (BMG Labtech). Percentage cell viability was calculated relative to the untreated control. The LC50 was defined as the concentration of AMP treatment that results in 50% lethality of HaCat cells and was determined from the dose-response curves.

A further data set has as its system E. coli LEC001. The data set can be described thus: microbe, parasite or virus in culture. The data set is classed as cell-based, Escherichia coli. To be noted: E. coli LEC001 (R); shown in µM. In short, it runs like this: (§1)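 Peptides 128→2 μg/mL, 2-fold series; inoculum ~5 × 10^5 CFU/mL from overnight culture (OD600 0.01, mixed 1:1). MHB non-cation-adjusted for bacteria, RPMI 1640 + 2% glucose for fungi. 37 °C, 20 h, OD600. MIC50/MIC90 at 50%/90% inhibition; n ≥ 3.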

The subject of a further data set is E. coli NCTC 12923. The data set can be described thus: microbe, parasite or virus in culture. Format: cell-based, Escherichia coli. To be noted: E. coli NCTC 12923 (S); shown in µM. The essentials:
as §1

A further data set has as its system P. aeruginosa NCTC 13437. The data set can be described thus: microbe, parasite or virus in culture. To be noted: P. aeruginosa NCTC 13437 (R); shown in µM. Format: cell-based, Pseudomonas aeruginosa. The essentials:
as §1

In a further data set the test system is P. aeruginosa PAO1. The data set can be described thus: microbe, parasite or virus in culture. Format: cell-based, Pseudomonas aeruginosa. The conditions noted are these: P. aeruginosa PAO1 (S). The essentials: as §1
A further data set deals with A. baumannii ATCC 17978. The data set can be described thus: microbe, parasite or virus in culture. The data set is classed as cell-based, Acinetobacter baumannii. The conditions noted are these: A. baumannii ATCC 17978 (S); shown in µM. In short, it runs like this:
as §1

The next data set concerns A. baumannii AYE. Put plainly: microbe, parasite or virus in culture. Format: cell-based, Acinetobacter baumannii. The conditions noted are these: A. baumannii AYE (R); shown in µM. The essentials: as §1
For the next data set, the system named is K. pneumoniae M6. The data set can be described thus: microbe, parasite or virus in culture. The data set is classed as cell-based, Klebsiella pneumoniae. The conditions noted are these: K. pneumoniae M6 (S); shown in µM. In short, it runs like this: as §1
Another data set concerns K. pneumoniae NCTC 13368. The data set can be described thus: microbe, parasite or virus in culture. To be noted: K. pneumoniae NCTC 13368 (R); shown in µM. Format: cell-based, Klebsiella pneumoniae. The essentials: as §1
The next data set concerns S. aureus (MRSA) 1199B. The data set can be described thus: microbe, parasite or virus in culture. The data set is classed as cell-based, Staphylococcus aureus. To be noted: S. aureus (MRSA) 1199B (R); shown in µM. In short, it runs like this:
as §1

The test system of data set [1] is S. aureus (MRSA) NCTC 13616. The data set can be described thus: microbe, parasite or virus in culture. Format: cell-based, Staphylococcus aureus. To be noted: S. aureus (MRSA) NCTC 13616 (R); shown in µM. In short, it runs like this: as §1
The subject of another data set is S. aureus (MRSA) USA300. Put plainly: microbe, parasite or virus in culture. The data set is classed as cell-based, Staphylococcus aureus. The conditions noted are these: S. aureus (MRSA) USA300 (R); shown in µM. The essentials: as §1
The test system of data set [2] is S. aureus (MSSA) ATCC 9144. Put plainly: microbe, parasite or virus in culture. Format: cell-based, Staphylococcus aureus. The conditions noted are these: S. aureus (MSSA) ATCC 9144 (S); shown in µM. The essentials: as §1
The next data set deals with C. auris TDG 1912. The data set can be described thus: microbe, parasite or virus in culture. The data set is classed as cell-based, Candida auris. The conditions noted are these: C. auris TDG 1912. The essentials: as §1
A further data set has as its system C. albicans NCPF 3281. Put plainly: microbe, parasite or virus in culture. Format: cell-based. The conditions noted are these: C. albicans NCPF 3281. The essentials: as §1
In a further data set the test system is C. glabrata NCPF 8018. The data set can be described thus: microbe, parasite or virus in culture. The data set is classed as cell-based. To be noted: C. glabrata NCPF 8018. In short, it runs like this: as §1
The next data set deals with C. krusei NCPF 3876. The data set can be described thus: microbe, parasite or virus in culture. Format: cell-based. To be noted: C. krusei NCPF 3876; shown in µM. In short, it runs like this:
as §1

Data set [3] relates to C. parapsilosis NCPF 3209. Put plainly: microbe, parasite or virus in culture. Format: cell-based. The conditions noted are these: C. parapsilosis NCPF 3209; shown in µM. The essentials: as §1
In another data set the test system is C. tropicalis NCPF 8760. Put plainly: microbe, parasite or virus in culture. Format: cell-based. To be noted: C. tropicalis NCPF 8760; shown in µM. The essentials: as §1
The mark [4] stands for this setting: 50% growth inhibition, RPMI 1640 + 2% glucose, 37 °C, 20 h.
The mark [5] stands for this setting: 90% growth inhibition, RPMI 1640 + 2% glucose, 37 °C, 20 h.

Where a SMILES comes first, the peptide text is derived from it.

`CC[C@H](C)[C@H](NC(=O)[C@H](C)NC(=O)[C@H](CCCCN)NC(=O)[C@H](CCCNC(=N)N)NC(=O)[C@@H](NC(=O)[C@H](CC(C)C)NC(=O)[C@H](CO)NC(=O)[C@H](Cc1ccccc1)NC(=O)[C@H](CC(C)C)NC(=O)[C@@H](N)Cc1ccccc1)[C@@H](C)CC)C(=O)NCC(=O)NCC(=O)N[C@@H](CC(C)C)C(=O)N[C@H](C(=O)N[C@@H](CO)C(=O)N[C@@H](C)C(=O)N[C@@H](Cc1ccccc1)C(=O)N[C@@H](CCCCN)C(=O)O)[C@@H](C)CC` [A3]: the “HC10 (concentration causing 10% hemolysis)” value in the data set on human erythrocytes amounted to 9 µg/mL. Moreover, the “% HaCat cell death at initial screening (256μg/mL) ± SD” value (shortened to “% HaCat cell death … (256μg/mL) ± SD”) in the data set with HaCat cell line was 100 ± 9.7%.

For the molecule `CC[C@H](C)[C@H](NC(=O)[C@H](C)NC(=O)[C@H](CCCCN)NC(=O)[C@@H]1CCCN1C(=O)[C@@H](NC(=O)[C@H](CC(C)C)NC(=O)[C@H](CCCCN)NC(=O)[C@H](Cc1ccccc1)NC(=O)[C@H](CC(C)C)NC(=O)[C@@H](N)Cc1ccccc1)[C@@H](C)CC)C(=O)N[C@@H](CCCCN)C(=O)N[C@@H](CCCCN)C(=O)N[C@@H](CC(C)C)C(=O)N[C@H](C(=O)N[C@@H](CO)C(=O)N[C@@H](CCCCN)C(=O)N[C@@H](Cc1ccccc1)C(=O)N[C@@H](CCCCN)C(=O)O)[C@@H](C)CC` [AamAP1-Lys] (H-FLFKLIPKAIKKLISKFK-OH), the “HC10 (concentration causing 10% hemolysis)” value in the data set with human erythrocytes was 94 µg/mL. For the same molecule, the “% HaCat cell death … (256μg/mL) ± SD” value with HaCat cell line is on record as 99.1 ± 8.7%.

Turning to `CC[C@H](C)[C@H](NC(=O)[C@H](C)NC(=O)[C@H](CCCCN)NC(=O)[C@@H]1CCCN1C(=O)[C@@H](NC(=O)[C@H](CC(C)C)NC(=O)[C@H](CO)NC(=O)[C@H](Cc1ccccc1)NC(=O)[C@H](CC(C)C)NC(=O)[C@@H](N)Cc1ccccc1)[C@@H](C)CC)C(=O)NCC(=O)NCC(=O)N[C@@H](CC(C)C)C(=O)N[C@H](C(=O)N[C@@H](CO)C(=O)N[C@@H](C)C(=O)N[C@@H](Cc1ccccc1)C(=O)N[C@@H](CCCCN)C(=O)O)[C@@H](C)CC` [AamAP-S1], in the data set on human erythrocytes, the “HC10 (concentration causing 10% hemolysis)” value is on record as 128 µg/mL and the “HC50 (concentration causing 50% hemolysis)” value is on record as 195 µg/mL. The “% HaCat cell death … (256μg/mL) ± SD” value in the data set with HaCat cell line came to 85 ±17.9%.

As to `CC[C@H](C)[C@H](N)C(=O)N[C@@H](CC(C)C)C(=O)NCC(=O)N[C@@H](CCCCN)C(=O)N[C@H](C(=O)N[C@@H](Cc1c[nH]c2ccccc12)C(=O)N[C@@H](CCCCN)C(=O)N1CCC[C@H]1C(=O)N[C@H](C(=O)N[C@@H](CCCCN)C(=O)N[C@@H](CCCCN)C(=O)N[C@@H](CC(C)C)C(=O)N[C@@H](Cc1ccccc1)C(N)=O)[C@@H](C)CC)[C@@H](C)CC` [K7P8K11-IsCTa] (H-ILGKIWKPIKKLF-NH2), the “Modal MIC” value in the data set on E. coli LEC001 is listed as 39.5 µM; in the data set on E. coli NCTC 12923 it was 9.9 µM; in the data set on P. aeruginosa NCTC 13437, 39.5 µM; in the data set on P. aeruginosa PAO1 (MHB, 37 °C, 20 h, OD600, min. three biological repeats), greater than 128 µg/mL; with P. aeruginosa PAO1 (shown in µM), greater than 79 µM; in the data set with A. baumannii ATCC 17978, 4.9 µM. The “Modal MIC” value with A. baumannii AYE turned out to be 4.9 µM; with K. pneumoniae M6, 19.8 µM; with K. pneumoniae NCTC 13368, 39.5 µM; with S. aureus (MRSA) 1199B, 19.8 µM; in data set [1], 39.5 µM; in the data set with S. aureus (MRSA) USA300 it was 39.5 µM. In addition, the “Modal MIC” value in data set [2] is recorded as 4.9 µM. Besides, the “Modal MIC50” value in the data set with C. auris TDG 1912 (50% growth inhibition, RPMI 1640 + 2% glucose, 37 °C, 20 h, OD600) is listed as greater than 128 µg/mL; with C. auris TDG 1912 (shown in µM), greater than 79 µM; in the data set on C. albicans NCPF 3281 (setting [4]) it was greater than 128 µg/mL; in the data set with C. albicans NCPF 3281 (shown in µM), greater than 79 µM; in the data set with C. glabrata NCPF 8018 (setting [4]), greater than 128 µg/mL; in the data set with C. glabrata NCPF 8018 (shown in µM), greater than 79 µM. For the same molecule, the entries for the “Modal MIC50” value (with C. krusei NCPF 3876; in [3]; in the data set with C. tropicalis NCPF 8760) were 19.8 µM, 39.5 µM and 4.9 µM, respectively. Moreover, the “Modal MIC90” value is reported as greater than 128 µg/mL in the data set on C. auris TDG 1912 (90% growth inhibition, RPMI 1640 + 2% glucose, 37 °C, 20 h, OD600); greater than 79 µM in the data set with C. auris TDG 1912 (shown in µM); greater than 128 µg/mL with C. albicans NCPF 3281 (setting [5]); greater than 79 µM in the data set on C. albicans NCPF 3281 (shown in µM); greater than 128 µg/mL with C. glabrata NCPF 8018 (setting [5]); greater than 79 µM in the data set with C. glabrata NCPF 8018 (shown in µM). The “Modal MIC90” value is listed as 39.5 µM in the data set with C. krusei NCPF 3876, 79 µM in [3] and 9.9 µM with C. tropicalis NCPF 8760. The “% HaCat cell death … (256μg/mL) ± SD” value with HaCat cell line came out at 89.2 ± 9.1%.

Source of the values: publication PMC11191095, “QSAR Reveals Decreased Lipophilicity of Polar Residues Determines the Selectivity of Antimicrobial Peptide Activity” (ACS Omega, 2024).
